Data as given in patent US6958345B2, “2-hydroxymethylcyclopropylidene methylpurines and -pyrimidines as antiviral agents” (The Regents of the University of Michigan, priority 1997, dated 2005).
pIC50: −log10 of the molar value.

System: HFF cells
Test: Cytotoxicity in stationary HFF cells, microscopic inspection
Format: cell-based, human
Experimental: Cells and viruses. The routine growth and passage of KB cells was performed in monolayer cultures using minimal essential medium (MEM) with either Hanks salts [MEM(H)] or Earle salts [MEM(E)] supplemented with 10% calf serum. The sodium bicarbonate concentration was varied to meet the buffering capacity required. Cultures of diploid human foreskin fibroblasts (HFF) or MRC-5 cells were grown in medium consisting of MEM(E) with 10% fetal bovine serum. Cells were passaged at 1:2 to 1:10 dilutions according to conventional procedures by using 0.05% trypsin plus 0.02% EDTA in a HEPES buffered salt solution (HBS) (Shipman, C., Jr., Proc. Soc. Exp. Biol. 130:305-310 (1969)) as described previously. Turk, S. R., et al., Antimicrob. Agents Chemother. 31:544-550 (1987). HFF and MRC-5 cells were passaged only at 1:2 dilutions. CEM cells were maintained in suspension culture as detailed previously. Kucera, L. S., et al., AIDS Res. Human Retroviruses 9:307-314 (1993).
Cytotoxicity assays. Two different assays were used to explore cytotoxicity of selected compounds as we have detailed previously. (i) Cytotoxicity produced in stationary HFF cells and in growing CEM cells was determined by microscopic inspection of cells used in plaque and RT assays which were not affected by the virus. Turk, S. R., et al., Antimicrob. Agents Chemother. 31:544-550 (1987). (ii) The effect of compounds during two population doublings of KB cells was determined by crystal violet staining and spectrophotometric quantitation of dye eluted from stained cells. Prichard, M. N., et al., Antimicrob. Agents Chemother. 35:1060-1065 (1991).
Data Analysis. Dose-response relationships were constructed by linearly regressing the percent inhibition of parameters derived in the preceding sections against log drug concentrations. Fifty-percent inhibitory (IC50) concentrations were calculated from the regression lines. Samples containing positive controls (acyclovir for HSV-1, ganciclovir for HCMV, and 2-acetylpyridine thiosemicarbazone for cytotoxicity) were used in all assays.

## Nc1ncnc2c1ncn2C=C1CC1CO (stereo not drawn) [1 (B = adenine), Example 5, syn-N^9-(2-hydroxymethylcyclopropylidenemethyl)adenine]
  pIC50: < 4.00
